{"source": "patent US5594103A", "about": "“Lantibiotics similar to nisin a” (Stichting Nederlands Instituut Voor Zuivelonderzoek (NIZO), priority 1991, dated 1997)", "key": {"anti-nisin A antibodies": {"system": "anti-nisin A antibodies", "experiment": "competitive ELISA with anti-nisin A antibodies", "type": "binding", "source_text": "Because the only difference between nisin Z and nisin A consists in the His27Asn substitution, the agreement between nisin Z and nisin A in respect of proteolytic sensitivity for these two enzymes is easily explainable. However, there are significant differences in physicochemical characteristics between the two abovementioned lantibiotics."}, "[1]": {"system": "Micrococcus flavus (M. f.) strain DSM 1790", "experiment": "MIC bioassay from OD600nm inhibition curves", "type": "cell-based", "conditions": "8 hours at 30° C., shaken; less than 1% increase in OD600nm", "experimental": "(§1) The antimicrobial activities referred to above were measured in a bioassay using Micrococcus flavus (M. f.) strain […], Bacillus cereus (B.c.) strain 5227 and Strepococcus thermophilus (S.t.) strain 3218 as indicator strains. Minimum inhibitory concentration (MIC) values were determined in the following way. Cultures of indicator organisms grown overnight were diluted to OD600nm values or 0.05 (M.f.) or 0.025 (S.t. and B.c.) and divided into 10 5 ml portions in tubes. These tubes were inoculated with various amounts of nisin A or (mutant) nisin Z and incubated aerobically under the following conditions (M.f.: 8 hours at 30° C., shaken; S.t.: 3 hours at 37° C., without shaking; B.c.: 6 hours at 30° C., shaken). The OD600nm was then measured. Without the addition of nisin, the final OD600nm values were approximately 1.2 for M.f., 0.5 for S.t. and 0.8 for B.c. All experiments were carried out in triplicate. The MIC values were determined from the inhibition curves by calculating the minimum concentration of (mutant) nisin at which less than a 1% increase in the OD600nm occurred. The solubilities of nisin A, nisin Z and the mutants N27K-nisin Z and H31K-nisin Z were determined in the range between pH 6.0 and pH 7.5. It can be seen from the results that in this range nisin Z is 1.5 to 2 times more soluble than nisin A and that the nisin Z mutants having an additional positive charge are 5 to 10 times more soluble than nisin A (Table 2)."}, "[2]": {"system": "Strepococcus thermophilus (S.t.) strain 3218", "experiment": "MIC bioassay from OD600nm inhibition curves", "type": "cell-based", "conditions": "3 hours at 37° C., without shaking; less than 1% increase in OD600nm", "experimental": "as §1"}, "[3]": {"system": "Bacillus cereus (B.c.) strain 5227", "experiment": "MIC bioassay from OD600nm inhibition curves", "type": "cell-based", "conditions": "6 hours at 30° C., shaken; less than 1% increase in OD600nm", "experimental": "as §1"}, "S. thermophilus Rs [4]": {"system": "S. thermophilus Rs", "experiment": "agar diffusion bioassay, S. thermophilus Rs as indicator", "type": "cell-based", "conditions": "S. thermophilus Rs in TGV medium, versus nisin A", "experimental": "(§2) The strain NIZO 22186 was isolated from an industrially obtained fermented milk product and identified as a L. lactis strain which ferments sucrose and produces an antimicrobial activity in the culture medium. This antimicrobial activity was determined by the agar diffusion bioassay method [Tramer and Fowler, J. Sci. Food Agric. 15 (1964) 522-528] using Micrococcus flavus DSM 1719 cultured in nutrient broth(Difco) as indicator. The supernatant of a culture of strain […] cultured on lactose M17 medium (Difco) containing 0-5% sucrose or glucose contained an antimicrobial activity which, compared with strain NIZO R5 [Galesloot and Pette, Neth. […] The absorption was monitored at 220 nm. […] The purified peptide material from strain […] and purified commercial nisin A were then hydrolysed for 24 hours in 6N HCl at 110° C. under nitrogen, concentrated by freeze-drying and, after dissolving in 0.2M Na citrate buffer of pH 2.2, analyzed in a LKB 4151 amino acid analyser. […]\n(§3) The antimicrobial activity of nisin Z was compared with that of nisin A. In this case, and for further comparisons of the two lantibiotics, use was made of preparations which had been purified with the aid of RP-HPLC [see above] and for which the precise amounts of lantibiotic had been determined by determining the absorption at 220 nm. […]"}, "[5]": {"system": "Lactococcus lactis subsp. cremoris BA3", "experiment": "inhibition spectrum, agar diffusion method", "type": "cell-based", "source_text": "(§4) The antimicrobial activity of nisin Z was compared with that of nisin A. In this case, and for further comparisons of the two lantibiotics, use was made of preparations which had been purified with the aid of RP-HPLC [see above] and for which the precise amounts of lantibiotic had been determined by determining the absorption at 220 nm. […] The difference comprised both the shape and the gradient of the dose/response curve which relates the amount of lantibiotic added and the diameter of the inhibition zones. In this context it should be pointed out that nisin concentrations which are used in practice are always higher than 2.5 μg/ml [Delves-Broughton, Food Manufacture, March 1987 pp. 63-64]. so that measurements at lower concentrations are more of academic than of practical interest. […] Milk Dairy J., 15 (1961) 127-132]. […] A differentiation between these is made by determining the minimum inhibitory concentrations (MIC) of nisin Z and nisin A which effected growth inhibition in the case of the microorganisms used. In this determination use was also made of M. flavus DSM1719 and S. thermophilus Rs cultured at 37° C. in, respectively, nutrient broth (Difco) and whey permeate containing 0.2% yeast extract. Various amounts of nisin Z and nisin A were added to exponentially growing cultures of both organisms, after which the growth was compared with that of cultures to which no lantibiotic had been added."}, "[6]": {"system": "Clostridium tyrobutyricum BZ15", "experiment": "inhibition spectrum, agar diffusion method", "type": "cell-based", "source_text": "as §4"}, "[7]": {"system": "Bacillus cereus strains VC1, P7 and C5", "experiment": "inhibition spectrum, agar diffusion method", "type": "cell-based", "source_text": "as §4"}, "[8]": {"system": "Listeria monocytogenes strain 1, 4B, 13 and 669", "experiment": "inhibition spectrum, agar diffusion method", "type": "cell-based", "source_text": "as §4"}, "[9]": {"system": "Brevibacterium linens ATCC 9174", "experiment": "inhibition spectrum, agar diffusion method", "type": "cell-based", "source_text": "as §4"}, "trypsin": {"system": "trypsin", "experiment": "sensitivity for proteolytic enzymes (RP-HPLC integrity and residual activity)", "type": "physicochemical", "conditions": "nisin Z versus nisin A", "experimental": "(§5) The sensitivity of the lantibiotics for some proteolytic enzymes has been described [Hurst, see above]. The sensitivity of nisin Z and nisin A for the proteolytic enzymes trypsin and chymotrypsin were determined by determining the integrity and the biological residual activity of the lantibiotics with the aid of, respectively, RP-HPLC and the agar diffusion assay [see above] after incubation with one of these enzymes."}, "chymotrypsin": {"system": "chymotrypsin", "experiment": "sensitivity for proteolytic enzymes (RP-HPLC integrity and residual activity)", "type": "physicochemical", "conditions": "nisin Z versus nisin A", "experimental": "as §5"}, "M. flavus DSM1719": {"system": "M. flavus DSM1719", "experiment": "minimum inhibitory concentration in exponentially growing cultures", "type": "cell-based", "conditions": "37° C., nutrient broth", "source_text": "as §4, with “Various amounts of nisin Z and nisin A were added to exponentially growing cultures of both organisms, after which the growth was compared with that of cultures to which no lantibiotic had been added.” left out"}, "S. thermophilus Rs [10]": {"system": "S. thermophilus Rs", "experiment": "minimum inhibitory concentration in exponentially growing cultures", "type": "cell-based", "conditions": "37° C., whey permeate containing 0.2% yeast extract", "source_text": "as §4, with “Various amounts of nisin Z and nisin A were added to exponentially growing cultures of both organisms, after which the growth was compared with that of cultures to which no lantibiotic had been added.” left out"}, "[11]": {"system": "Micrococcus flavus DSM 1719", "experiment": "agar diffusion bioassay, M. flavus as indicator", "type": "cell-based", "experimental": "as §2, §3"}, "solubility determination": {"experiment": "solubility determination", "type": "physicochemical", "conditions": "for Solubility: 0.15M NaCl, room temperature"}}, "data": [{"smiles": "C=C(NC(=O)[C@@H](NC(=O)[C@H](Cc1c[nH]cn1)NC(=O)[C@@H](NC(=O)[C@H](CO)NC(=O)[C@@H]1CS[C@@H](C)[C@H]2NC(=O)[C@H](C)NC(=O)[C@H](NC(=O)[C@H](CCCCN)NC(=O)[C@H](CCSC)NC(=O)[C@H](CC(N)=O)NC(=O)[C@@H]3CS[C@@H](C)[C@@H](NC(=O)[C@H](CCCCN)NC(=O)[C@@H]4CS[C@@H](C)[C@@H](NC(=O)[C@@H]5CSC[C@@H](NC(=O)/C(=C/C)NC(=O)[C@@H](N)[C@@H](C)CC)C(=O)N[C@@H]([C@@H](C)CC)C(=O)NC(=C)C(=O)N[C@@H](CC(C)C)C(=O)N5)C(=O)N5CCC[C@H]5C(=O)NCC(=O)N4)C(=O)NCC(=O)N[C@@H](C)C(=O)N[C@@H](CC(C)C)C(=O)N[C@@H](CCSC)C(=O)NCC(=O)N3)[C@H](C)SC[C@H](NC2=O)C(=O)N[C@@H](CC(N)=O)C(=O)N1)[C@@H](C)CC)C(C)C)C(=O)N[C@@H](CCCCN)C(=O)O", "note": "[nisin Z]", "values": [{"measurement": "reaction in competitive ELISA", "setting": "anti-nisin A antibodies", "value": "no reaction"}, {"measurement": "Minimum Inhibitory Concentration, Micrococcus flavus", "setting": "[1]", "value": 11, "unit": "µg/L"}, {"measurement": "Minimum Inhibitory Concentration, S. thermophilus", "setting": "[2]", "value": 6, "unit": "µg/L"}, {"measurement": "Minimum Inhibitory Concentration, B. cereus", "setting": "[3]", "value": 130, "unit": "µg/L"}, {"measurement": "zones of growth inhibition", "setting": "S. thermophilus Rs [4]", "value": "Comparable results"}, {"measurement": "antimicrobial activity (inhibition spectrum)", "setting": "[5]", "value": "comparably high antimicrobial activity"}, {"measurement": "antimicrobial activity (inhibition spectrum)", "setting": "[6]", "value": "comparably high antimicrobial activity"}, {"measurement": "antimicrobial activity (inhibition spectrum)", "setting": "[7]", "value": "comparably high antimicrobial activity"}, {"measurement": "antimicrobial activity (inhibition spectrum)", "setting": "[8]", "value": "comparably high antimicrobial activity"}, {"measurement": "antimicrobial activity (inhibition spectrum)", "setting": "[9]", "value": "comparably high antimicrobial activity"}, {"measurement": "sensitivity for trypsin", "setting": "trypsin", "value": "comparable"}, {"measurement": "sensitivity for chymotrypsin", "setting": "chymotrypsin", "value": "comparable"}, {"measurement": "minimum inhibitory concentration (MIC)", "setting": "M. flavus DSM1719", "value": 0.015, "unit": "µg/mL"}, {"measurement": "minimum inhibitory concentration (MIC)", "setting": "S. thermophilus Rs [10]", "value": 0.03, "unit": "µg/mL"}, {"measurement": "diffusion rate in an agar medium", "setting": "[11]; compared with nisin A", "value": "higher diffusion rate"}, {"measurement": "zones of growth inhibition (diameter of halo)", "setting": "[11]; concentrations above 0.03 μg/ml, versus same amount of nisin A", "value": "always found to be greater than those obtained with the same amount of nisin A"}, {"measurement": "solubility compared with nisin A", "setting": "solubility determination; alkaline pH", "value": "greater than that of nisin A"}, {"measurement": "Solubility", "setting": "solubility determination; pH 6.0", "value": 2600, "unit": "µg/mL"}, {"measurement": "Solubility", "setting": "solubility determination; pH 6.5", "value": 1500, "unit": "µg/mL"}, {"measurement": "Solubility", "setting": "solubility determination; pH 7.0", "value": 800, "unit": "µg/mL"}, {"measurement": "Solubility", "setting": "solubility determination; pH 7.5", "value": 600, "unit": "µg/mL"}]}]}
